Literature values as cited in patent publication US20130028962A1, “Triggered Cargo Release from Nanoparticle Stabilized Liposomes” (THE REGENTS OF THE UNIVERSITY OF CALIFORNIA, priority 2010, published 2013).

Tested on: MRSA bacteria
Settings: against MRSA bacteria

CN[C@H](CC(C)C)C(=O)N[C@H]1C(=O)N[C@@H](CC(N)=O)C(=O)N[C@H]2C(=O)N[C@H]3C(=O)N[C@H](C(=O)N[C@H](C(=O)O)c4cc(O)cc(O)c4-c4cc3ccc4O)[C@H](O)c3ccc(c(Cl)c3)Oc3cc2cc(c3O[C@@H]2O[C@H](CO)[C@@H](O)[C@H](O)[C@H]2O[C@H]2C[C@](C)(N)[C@H](O)[C@H](C)O2)Oc2ccc(cc2Cl)[C@H]1O [vancomycin]
minimal inhibitory concentration (MIC): about 2 μg/mL
